The text below walks through data of PubChem BioAssay (NCI).

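Growth conditions: 96-well plates. Treatment: test compound, 48 hours, 5 concentrations. Analysis: linear interpolation between bracketing concentrations; unreached endpoints set to highest concentration. GI50 marks 50% less growth. At the TGI there is no net growth.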

Some test systems named below: NCI/ADR-RES ovarian; EKVX NSCLC; SF-268 CNS; MDA-MB-435; LOX IMVI melanoma; DU-145 prostate; SK-MEL-5 melanoma; SNB-19 CNS; OVCAR-4 ovarian; MOLT-4 leukemia.
Common to all, as to assay: NCI tumour cell line growth inhibition, 48 h

Take `O=C1Nc2ccc(O)cc2/C1=C\c1ccncc1`: the GI50 with NCI/ADR-RES ovarian was 23.7 µM; with EKVX NSCLC, 10.6 µM; with SF-268 CNS it was 12 µM; in the experiment with MDA-MB-435, 18.2 µM; in the experiment on LOX IMVI melanoma it was 12 µM; in the experiment with DU-145 prostate, 19.5 µM. In addition, the values for the GI50 in the experiment on SK-MEL-5 melanoma and with SNB-19 CNS were 15.5 µM and 21.2 µM, respectively. The TGI with NCI/ADR-RES ovarian worked out at 60.1 µM; with EKVX NSCLC it was 56 µM; in the experiment with SF-268 CNS, 36.3 µM; in the experiment on MDA-MB-435 it was 71 µM; in the experiment with LOX IMVI melanoma, 25.6 µM; in the experiment with DU-145 prostate it was 54.2 µM. In addition, the TGI with SK-MEL-5 melanoma came out at 38.1 µM; in the experiment with SNB-19 CNS, 59 µM.

Consider `CCC(CC)c1cc(N[C@H]2CC[C@H](N)C2)n2nccc2n1`, for which the GI50 is 6.41 µM in the experiment on NCI/ADR-RES ovarian; 1.7 µM in the experiment on EKVX NSCLC; 2.44 µM with SF-268 CNS; 0.978 µM with OVCAR-4 ovarian; 1.38 µM in the experiment with MDA-MB-435; 0.747 µM in the experiment on LOX IMVI melanoma. The GI50 in the experiment with DU-145 prostate was 0.708 µM; with SK-MEL-5 melanoma, 2.21 µM; with SNB-19 CNS, 1.06 µM; in the experiment on MOLT-4 leukemia, 1.36 µM. For the same molecule, the TGI in the experiment with NCI/ADR-RES ovarian was greater than 100 µM; in the experiment on EKVX NSCLC it was 5.16 µM; in the experiment on SF-268 CNS it was 13.9 µM; in the experiment on OVCAR-4 ovarian, 22.8 µM; in the experiment on MDA-MB-435, 3.76 µM; with LOX IMVI melanoma, greater than 100 µM. Also, the TGI in the experiment with DU-145 prostate was greater than 100 µM; with SK-MEL-5 melanoma, 11 µM; in the experiment on SNB-19 CNS, greater than 100 µM; in the experiment on MOLT-4 leukemia, greater than 100 µM.

`CCOC(=O)Nc1ccc2nc(N3CCCCCC3)sc2c1`: the GI50 in the experiment with NCI/ADR-RES ovarian is 1.03 µM; in the experiment with EKVX NSCLC, 5.14 µM; with SF-268 CNS it was 8.25 µM; in the experiment with OVCAR-4 ovarian, 23.7 µM; with MDA-MB-435 it was 0.204 µM; with LOX IMVI melanoma, 2.16 µM. Moreover, the GI50 is 4 µM in the experiment with DU-145 prostate, 1.04 µM in the experiment with SK-MEL-5 melanoma, 2.84 µM in the experiment on SNB-19 CNS and 3.47 µM in the experiment on MOLT-4 leukemia. The TGI in the experiment on NCI/ADR-RES ovarian is greater than 36.6 µM; with EKVX NSCLC, greater than 100 µM; with SF-268 CNS it was greater than 100 µM; in the experiment with OVCAR-4 ovarian it was greater than 100 µM; in the experiment with MDA-MB-435, 0.567 µM; with LOX IMVI melanoma it was greater than 100 µM. The TGI with DU-145 prostate was greater than 83.3 µM; with SK-MEL-5 melanoma it was 15.9 µM; in the experiment on SNB-19 CNS it was greater than 100 µM; in the experiment with MOLT-4 leukemia, greater than 92.9 µM.

On to `O=C(NCCCl)NCCN1c2nc3ccccc3cc2Sc2cc3ccccc3nc21`, for which the GI50 with NCI/ADR-RES ovarian is 1.61 µM; in the experiment with EKVX NSCLC it was 3.45 µM; in the experiment with SF-268 CNS, 3.63 µM; in the experiment on OVCAR-4 ovarian, 0.9 µM; in the experiment on MDA-MB-435 it was 1.57 µM; in the experiment with LOX IMVI melanoma, 2.36 µM. Besides, the GI50 in the experiment on DU-145 prostate was 3.28 µM; in the experiment on SK-MEL-5 melanoma, 0.168 µM; in the experiment on SNB-19 CNS, 5.58 µM; with MOLT-4 leukemia, 0.861 µM. Also, the TGI in the experiment with NCI/ADR-RES ovarian is 13 µM; with EKVX NSCLC, greater than 44.1 µM; in the experiment with SF-268 CNS it was greater than 41 µM; in the experiment with OVCAR-4 ovarian it was greater than 23.4 µM; in the experiment with MDA-MB-435, 11.1 µM; in the experiment on LOX IMVI melanoma, 14.6 µM. For the same molecule, the TGI in the experiment on DU-145 prostate is greater than 39.4 µM; in the experiment on SK-MEL-5 melanoma, 1.25 µM; in the experiment with SNB-19 CNS it was greater than 46.8 µM.

On to `O=C(/C=C\c1cc(Br)ccc1O)/C=C/c1cc(Br)ccc1O`, for which the GI50 is 0.321 µM in the experiment on NCI/ADR-RES ovarian; 1.54 µM in the experiment with EKVX NSCLC; 1.33 µM in the experiment on SF-268 CNS; 1.21 µM with OVCAR-4 ovarian; 0.355 µM in the experiment on MDA-MB-435; 0.208 µM in the experiment with LOX IMVI melanoma. Further, the GI50 is 0.814 µM with DU-145 prostate, 0.426 µM in the experiment on SK-MEL-5 melanoma, 1.03 µM in the experiment with SNB-19 CNS and 0.316 µM with MOLT-4 leukemia. Further, the TGI in the experiment on NCI/ADR-RES ovarian was determined as 12.9 µM; with EKVX NSCLC, 3.18 µM; with SF-268 CNS, 3.1 µM; with OVCAR-4 ovarian, 6.87 µM; with MDA-MB-435, 1.53 µM; in the experiment on LOX IMVI melanoma, 0.463 µM. Also, the TGI with DU-145 prostate is 2.17 µM; with SK-MEL-5 melanoma, 1.66 µM; with SNB-19 CNS, 2.55 µM; in the experiment with MOLT-4 leukemia, 12 µM.

Turning to `C=C1C(=O)O[C@@H]2C[C@@H]1CC[C@]1(C)O[C@H]1CC/C(C)=C/CC[C@@]2(C)O`, the GI50 is 20.9 µM in the experiment with NCI/ADR-RES ovarian; 23.4 µM in the experiment on EKVX NSCLC; 19.9 µM in the experiment with SF-268 CNS; 18.3 µM with MDA-MB-435; 0.895 µM in the experiment with LOX IMVI melanoma; 24.3 µM in the experiment with SK-MEL-5 melanoma. The GI50 in the experiment on SNB-19 CNS is 49.6 µM; with MOLT-4 leukemia, 11.7 µM. In addition, the TGI came to 56.3 µM in the experiment with NCI/ADR-RES ovarian; 80.2 µM in the experiment with EKVX NSCLC; 50.5 µM in the experiment with SF-268 CNS; 41.1 µM in the experiment on MDA-MB-435; 4.85 µM in the experiment with LOX IMVI melanoma; 52.7 µM in the experiment with SK-MEL-5 melanoma. Further, the figures for the TGI in the experiment with SNB-19 CNS and in the experiment with MOLT-4 leukemia were greater than 100 µM and 28.1 µM, respectively.

For `COc1ccc(CN2C(=O)/C(=C\C(=O)c3ccc(OCCN4CCCC4)cc3)c3ccccc32)cc1`, the GI50 was 5.71 µM with NCI/ADR-RES ovarian; 11.3 µM with EKVX NSCLC; 13.2 µM in the experiment on SF-268 CNS; 2.18 µM in the experiment on OVCAR-4 ovarian; 1.81 µM in the experiment with MDA-MB-435; 2.32 µM in the experiment on DU-145 prostate. For the same molecule, the GI50 in the experiment with SK-MEL-5 melanoma was 16.2 µM; in the experiment with SNB-19 CNS it was 3.83 µM; with MOLT-4 leukemia, 2.91 µM. The TGI was determined as 47.7 µM with NCI/ADR-RES ovarian; 34.2 µM with EKVX NSCLC; 42.7 µM in the experiment on SF-268 CNS; 5.44 µM in the experiment with OVCAR-4 ovarian; 3.74 µM in the experiment on MDA-MB-435; 5.65 µM in the experiment with DU-145 prostate. The TGI was 38.8 µM in the experiment on SK-MEL-5 melanoma, 15.1 µM in the experiment with SNB-19 CNS and 7.11 µM with MOLT-4 leukemia.

On to `c1ccc(COCC[P+](c2ccccc2)(c2ccccc2)c2ccccc2)cc1`, for which the GI50 in the experiment on NCI/ADR-RES ovarian was 19.7 µM; in the experiment on SF-268 CNS, 3.17 µM; with OVCAR-4 ovarian, 0.444 µM; with MDA-MB-435, 0.601 µM; with LOX IMVI melanoma, 1.87 µM; in the experiment on DU-145 prostate it was 2.01 µM. For the same molecule, the GI50 in the experiment on SK-MEL-5 melanoma was 0.396 µM; in the experiment with SNB-19 CNS it was 1.03 µM; in the experiment on MOLT-4 leukemia, 2.1 µM. For the same molecule, the TGI came out at 57.1 µM with NCI/ADR-RES ovarian; 23.1 µM in the experiment with SF-268 CNS; 12.2 µM in the experiment on OVCAR-4 ovarian; 6.28 µM with MDA-MB-435; 6.05 µM in the experiment on LOX IMVI melanoma; 26.2 µM in the experiment on DU-145 prostate. The TGI stood at 1.61 µM in the experiment with SK-MEL-5 melanoma, 10.7 µM in the experiment on SNB-19 CNS and 12.4 µM in the experiment with MOLT-4 leukemia.
